# From US11345712B2, “Protein-targeting compounds and pharmaceutical compositions thereof, and their therapeutic applications” (BioTheryX, Inc., priority 2019, dated 2022)
# Tested on: MOLM-13 cells
# Assay: MOLM-13 cell viability assay (CellTiter-Glo)
# Assay type: cell-based
# Conditions: 3 days, concentration of 1 μM; for cytotoxicity at 1 µM: Homo sapiens, MOLM-13, 72 h, read-out: Antiproliferative Activity (inhibition, MOLM-13 cell viability)
# Description: MOLM-13 cells were cultured in RPMI 1640 media supplemented with 10% fetal bovine serum, streptomycin, and penicillin. The cells were plated in white walled 96-well plates at 2,500 cells/well. The cells were incubated in DMSO (control) or an indicated compound for 3 days at 37° C. and 5% CO2. Following the incubation period, 100 μL of CELLTITER-GLO® (CTG) reagent was added to each well. Following a 10 minutes incubation with shaking, luminescence was measured using an ENVISION® Multimode plate reader.
SMILES,"Antiproliferative Activity (inhibition, MOLM-13 cell viability)",cytotoxicity at 1 µM
"CC(C)(C)c1ccc(C(=O)C(=O)NCc2cc3c(s2)C(=O)N(C2CCC(=O)NC2=O)C3)cc1 (stereo not shown) [Compound I-35, 2-(4-(tert-butyl)phenyl)-N-((5-(2,6-dioxopiperidin-3-yl)-6-oxo-5,6-dihydro-4H-thieno[2,3-c]pyrrol-2-yl)methyl)-2-oxoacetamide]",D (a value less than 25% inhibition),
"CC(C)(C)C1CCN(C(=O)C(=O)NCc2ccc3c(c2)CN(C2CCC(=O)NC2=O)C3=O)CC1 (stereo not shown) [Compound I-62, 2-(4-(tert-butyl)piperidin-1-yl)-N-((2-(2,6-dioxopiperidin-3-yl)-1-oxoisoindolin-5-yl)methyl)-2-oxoacetamide]",,> 80%
"COc1cc(NC(=O)NCc2cc3c(s2)C(=O)N(C2CCC(=O)NC2=O)C3)ccc1C (stereo not shown) [II-58, 1-((5-(2,6-dioxopiperidin-3-yl)-6-oxo-5,6-dihydro-4H-thieno[2,3-c]pyrrol-2-yl)methyl)-3-(3-methoxy-4-methylphenyl)urea]",,> 80%
"O=C1CCC(N2Cc3cc(CCNC(=O)C(=O)c4ccc(C5(C(F)(F)F)CC5)cc4)ccc3C2=O)C(=O)N1 (stereo not shown) [Compound I-52, N-(2-(2-(2,6-Dioxopiperidin-3-yl)-1-oxoisoindolin-5-yl)ethyl)-2-oxo-2-(4-(1-(trifluoromethyl)cyclopropyl)phenyl)acetamide]",,25 to 50%
"CC(C)(C)c1ccc(C(=O)C(=O)NCc2c(F)c(F)cc3c2CN(C2CCC(=O)NC2=O)C3=O)cc1 (stereo not shown) [Compound I-51, 2-(4-(tert-butyl)phenyl)-N-((2-(2,6-dioxopiperidin-3-yl)-5,6-difluoro-1-oxoisoindolin-4-yl)methyl)-2-oxoacetamide]",,< 25%
"CCc1ccc(NC(=O)NCc2cc3c(s2)C(=O)N(C2CCC(=O)NC2=O)C3)cc1N(C)C (stereo not shown) [II-96, 1-(3-(dimethylamino)-4-ethylphenyl)-3-((5-(2,6-dioxopiperidin-3-yl)-6-oxo-5,6-dihydro-4H-thieno[2,3-c]pyrrol-2-yl)methyl)urea]",,> 80%
"O=C1CCC(N2Cc3cc(CNC(=O)C(=O)c4ccc(C(F)(F)F)cc4)ccc3C2=O)C(=O)N1 (stereo not shown) [Compound I-87, N-((2-(2,6-dioxopiperidin-3-yl)-1-oxoisoindolin-5-yl)methyl)-2-oxo-2-(4-trifluoromethylphenyl)acetamide]",,25 to 50%
"CC(C)(C)c1cccc(C(=O)C(=O)NCc2scc3c2CN(C2CCC(=O)NC2=O)C3=O)c1 (stereo not shown) [Compound I-19, 2-(3-tert-butylphenyl)-N-((5-(2,6-dioxopiperidin-3-yl)-4-oxo-5,6-dihydro-4H-thieno[3,4-c]pyrrol-1-yl)methyl)-2-oxoacetamide]",,> 80%
"O=C1CCC(N2Cc3c(CNC(=O)C(=O)c4ccccc4)cccc3C2=O)C(=O)N1 (stereo not shown) [Compound I-74, N-((2-(2,6-dioxopiperidin-3-yl)-1-oxoisoindolin-4-yl)methyl)-2-oxo-2-phenylacetamide]",,< 25%
"O=C(CN1CCOCC1)NCc1scc2c1CN(C1CCC(=O)NC1=O)C2=O (stereo not shown) [II-78, N-((5-(2,6-dioxopiperidin-3-yl)-4-oxo-5,6-dihydro-4H-thieno[3,4-c]pyrrol-1-yl)methyl)-2-morpholinoacetamide]",,< 25%
"CN(C)c1cccc(NC(=O)NCc2cc3c(s2)C(=O)N(C2CCC(=O)NC2=O)C3)c1 (stereo not shown) [II-48, 1-(3-(dimethylamino)phenyl)-3-((5-(2,6-dioxopiperidin-3-yl)-6-oxo-5,6-dihydro-4H-thieno[2,3-c]pyrrol-2-yl)methyl)urea]",,> 80%
"Cc1ccc(NC(=O)NCc2cc3c(s2)C(=O)N(C2CCC(=O)NC2=O)C3)cc1C(C)C (stereo not shown) [II-54, 1-((5-(2,6-dioxopiperidin-3-yl)-6-oxo-5,6-dihydro-4H-thieno[2,3-c]pyrrol-2-yl)methyl)-3-(3-isopropyl-4-methylphenyl)urea]",,> 80%
"O=C1CCC(N2Cc3c(CNC(=O)C(=O)c4ccc(F)cc4)cccc3C2=O)C(=O)N1 (stereo not shown) [Compound I-81, 2-(4-fluorophenyl)-N-((2-(2,6-dioxopiperidin-3-yl)-1-oxoisoindolin-4-yl)methyl)-2-oxoacetamide]",,25 to 50%
"CC(C)(C)c1ccc(C(=O)C(=O)NCc2cc3c(s2)C(=O)N(C2CCC(=O)NC2=O)C3)cc1 (stereo not shown) [Compound I-45, 2-(4-(tert-butyl)phenyl)-N-((5-(2,6-dioxopiperidin-3-yl)-6-oxo-5,6-dihydro-4H-thieno[2,3-c]pyrrol-2-yl)methyl)-2-oxoacetamide]",B (a value less than 80% but no less than 50%),
"CC(CCc1ccc(C(C)(C)C)cc1)C(=O)NCc1scc2c1CN(C1CCC(=O)NC1=O)C2=O (stereo not shown) [II-86, 4-(4-(tert-butyl)phenyl)-N-((5-(2,6-dioxopiperidin-3-yl)-4-oxo-5,6-dihydro-4H-thieno[3,4-c]pyrrol-1-yl)methyl)-2-methylbutanamide]",,< 25%
"O=C1CCC(N2Cc3c(CNC(=O)C(=O)c4ccc(Br)cc4)cccc3C2=O)C(=O)N1 (stereo not shown) [Compound I-106, 2-(4-bromophenyl)-N-((2-(2,6-dioxopiperidin-3-yl)-1-oxoisoindolin-4-yl)methyl)-2-oxoacetamide]",,< 25%
"O=C1CCC(N2Cc3cc(CNC(=O)Nc4cccc(N5CCCC5)c4)sc3C2=O)C(=O)N1 (stereo not shown) [II-99, 1-((5-(2,6-dioxopiperidin-3-yl)-6-oxo-5,6-dihydro-4H-thieno[2,3-c]pyrrol-2-yl)methyl)-3-(3-(pyrrolidin-1-yl)phenyl)urea]",,> 80%
"CCN(C)c1cc(NC(=O)NCc2cc3c(s2)C(=O)N(C2CCC(=O)NC2=O)C3)ccc1C (stereo not shown) [II-100, 1-((5-(2,6-dioxopiperidin-3-yl)-6-oxo-5,6-dihydro-4H-thieno[2,3-c]pyrrol-2-yl)methyl)-3-(3-(ethyl(methyl)amino)-4-methylphenyl)urea]",,> 80%
"CC(C)(C)c1ccc(C(F)(F)C(=O)NCc2scc3c2CN(C2CCC(=O)NC2=O)C3=O)cc1 (stereo not shown) [II-129, 2-(4-(tert-butyl)phenyl)-N-((5-(2,6-dioxopiperidin-3-yl)-4-oxo-5,6-dihydro-4H-thieno[3,4-c]pyrrol-1-yl)methyl)-2,2-difluoroacetamide]",,< 25%
"Cc1ccc(NCCCNCc2cc3c(s2)C(=O)N(C2CCC(=O)NC2=O)C3)cc1Cl (stereo not shown) [II-65, 3-(2-(((3-((3-chloro-4-methylphenyl)amino)propyl)amino)methyl)-6-oxo-4,6-dihydro-5H-thieno[2,3-c]pyrrol-5-yl)piperidine-2,6-dione]",,< 25%
"Cc1ccc(NC(=O)NCc2cc3c(s2)C(=O)N(C2CCC(=O)N(COC(=O)[C@H](N)C(C)C)C2=O)C3)cc1N(C)C (stereo partly drawn) [II-81, (3-(2-((3-(3-(dimethylamino)-4-methylphenyl)ureido)methyl)-6-oxo-4,6-dihydro-5H-thieno[2,3-c]pyrrol-5-yl)-2,6-dioxopiperidin-1-yl)methyl D-valinate]",,> 80%
"CN(C)c1ccc(C(=O)C(=O)NCc2scc3c2CN(C2CCC(=O)NC2=O)C3=O)cc1 (stereo not shown) [Compound I-7, 2-(4-dimethylaminophenyl)-N-((5-(2,6-dioxopiperidin-3-yl)-4-oxo-5,6-dihydro-4H-thieno[3,4-c]pyrrol-1-yl)methyl)-2-oxoacetamide]",,< 25%
